We go through 15 molecules from ChEMBL document CHEMBL3044912, “Nematicidal efficacy of isothiocyanates against root-knot nematode Meloidogyne javanica in cucumber” (2011).

Molecules are shown by their SMILES. Converted amounts (≈) assume the structure as drawn. The source made the active and inactive calls. No cut-off for these calls is given here.

Assay [1] relates to Meloidogyne javanica. Briefly: Nematicidal activity against Meloidogyne javanica J2 (root-knot nematode) assessed as mortality rate compound treated as vapor at 25 +/- 2 degC. Type of assay: functional. Conditions: for LC50: Meloidogyne javanica.
The subject of assay [2] is Meloidogyne javanica. The experiment in a line: Nematicidal activity against Meloidogyne javanica J2 (root-knot nematode) assessed as mortality rate at 5 ug/mL (vapor concentration in the air, weight/volume) at 25 +/- 2 degC measured after 48 hr. In kind it is functional.
For assay [3], the system named is Meloidogyne javanica. The experiment in a line: Nematicidal activity against Meloidogyne javanica J2 (root-knot nematode) assessed as mortality rate at 5 ug/mL (vapor concentration in the air, weight/volume) at 25 +/- 2 degC measured after 72 hr. In kind it is functional.
In assay [4] the test system is Meloidogyne javanica. Briefly: Nematicidal activity against Meloidogyne javanica (root-knot nematode) inoculated in cucumber plant assessed as reduction in galls at 0.5 ml/kg of soil dosed 7 days before planting by pot experiment. In kind it is functional, organism-based.
For assay [5], the system named is Meloidogyne javanica. Briefly: Nematicidal activity against Meloidogyne javanica (root-knot nematode) inoculated in cucumber plant assessed as reduction in galls at 2 ml/kg of soil dosed 7 days before planting by pot experiment. Type of assay: functional, organism-based.
Assay [6] has as its system Meloidogyne javanica. The experiment in a line: Nematicidal activity against Meloidogyne javanica (root-knot nematode) inoculated in cucumber plant assessed as reduction in galls compound treated in soil 7 days before planting by pot experiment. In kind it is functional.
The test system of assay [7] is Meloidogyne javanica. Briefly: Nematicidal activity against Meloidogyne javanica (root-knot nematode) inoculated in cucumber plant assessed as reduction in galls at 1 ml/kg of soil dosed 7 days before planting by pot experiment. Type of assay: functional, organism-based.
For assay [8], the system named is Meloidogyne javanica. The experiment in a line: Nematicidal activity against Meloidogyne javanica (root-knot nematode) infected in cucumber field assessed as reduction in root gallling at 2 kg/ha by field plot experiment. In kind it is functional, organism-based.
Assay [9] relates to Meloidogyne javanica. Briefly: Nematicidal activity against Meloidogyne javanica (root-knot nematode) inoculated in cucumber plant assessed as reduction in Meloidogyne javanica (root-knot nematode)numbers at 0.5 to 2 ml/kg of soil dosed 7 days before planting by pot experiment. Type of assay: functional, organism-based.
For assay [10], the system named is Meloidogyne javanica. Briefly: Nematicidal activity against Meloidogyne javanica (root-knot nematode) infected in cucumber field assessed as reduction in root gallling at 5 kg/ha by field plot experiment. In kind it is functional, organism-based.

The LC50 is the concentration lethal to half of the exposed cells or organisms. What is called mortality is the percentage killed. For the molecule `CC(N=C=S)c1ccccc1` (centres undefined) [1-PHENYLETHYL ISOTHIOCYANATE], in the assay with Meloidogyne javanica [1], the LC90 amounted to 8.14 µg/mL (≈ 49.9 µM) and the LC50 was 4.24 µg/mL (≈ 26 µM). In addition, the mortality at 5 µg/mL in the assay on Meloidogyne javanica [2] worked out at 58.6%. The mortality at 5 µg/mL in the assay on Meloidogyne javanica [3] is 76.6%.

Turning to `C=CC(=O)N=C=S` [ACRYLOYL ISOTHIOCYANATE], the outcome in the assay on Meloidogyne javanica [4], in the assay on Meloidogyne javanica [5] and in the assay on Meloidogyne javanica [7] was Active. Besides, in the assay on Meloidogyne javanica [1], the LC90 turned out to be 4.63 µg/mL (≈ 40.9 µM). The median lethal concentration (LC50) in the assay on Meloidogyne javanica [1] amounted to 2.53 µg/mL (≈ 22.4 µM). Also, the LD50 in the assay with Meloidogyne javanica [6] is 0.48 mL. Besides, the mortality at 5 µg/mL was 71% with Meloidogyne javanica [2] and 92.1% in the assay on Meloidogyne javanica [3]. Also, the inhibition result in the assay on Meloidogyne javanica [8] and in the assay with Meloidogyne javanica [9] was “Active” in each case.

With `C=CCN=C=S` [ALLYL ISOTHIOCYANATE], the result in the assay on Meloidogyne javanica [4], with Meloidogyne javanica [5] and in the assay with Meloidogyne javanica [7] was Active. Besides, in the assay on Meloidogyne javanica [1], the LC90 was 4.94 µg/mL (≈ 49.8 µM). Besides, the LC50 with Meloidogyne javanica [1] came to 2.76 µg/mL (≈ 27.8 µM). In addition, the LD50 in the assay on Meloidogyne javanica [6] was 0.49 mL. Moreover, the mortality at 5 µg/mL was 70.1% in the assay on Meloidogyne javanica [2] and 90.5% in the assay with Meloidogyne javanica [3]. Moreover, the inhibition entry with Meloidogyne javanica [8] and with Meloidogyne javanica [9] was “Active” each time.

With `S=C=NCc1ccccc1` [BENZYL ISOTHIOCYANATE], in the assay on Meloidogyne javanica [1], the LC90 is 8.55 µg/mL (≈ 57.3 µM) and the 50% lethal concentration (LC50) came out at 4.48 µg/mL (≈ 30 µM). For the same molecule, in the assay on Meloidogyne javanica [2], the mortality at 5 µg/mL came out at 32.2%. The mortality at 5 µg/mL with Meloidogyne javanica [3] was determined as 70.2%.

Turning to `N#CSCc1ccccc1` [BENZYL THIOCYANATE], the LC90 in the assay with Meloidogyne javanica [1] stood at 8.71 µg/mL (≈ 58.4 µM). Further, the 50% lethal concentration (LC50) with Meloidogyne javanica [1] came to 4.64 µg/mL (≈ 31.1 µM). For the same molecule, the mortality at 5 µg/mL was found to be 30.1% with Meloidogyne javanica [2] and 66.4% with Meloidogyne javanica [3].

Consider `CC/C=C/N=C=S` [BUTENYL ISOTHIOCYANATE], for which the mortality at 5 µg/mL with Meloidogyne javanica [2] turned out to be 20.6%; in the assay with Meloidogyne javanica [3], 49.9%.

With `CCCCN=C=S` [BUTYL ISOTHIOCYANATE], the values for the mortality at 5 µg/mL with Meloidogyne javanica [2] and in the assay with Meloidogyne javanica [3] were 28.1% and 58.6%, respectively.

On to `CCN=C=S` [ETHYL ISOTHIOCYANATE], for which, in the assay with Meloidogyne javanica [1], the LC90 was determined as 5.72 µg/mL (≈ 65.6 µM). In addition, the median lethal concentration (LC50) in the assay on Meloidogyne javanica [1] amounted to 3.05 µg/mL (≈ 35 µM). Also, the mortality at 5 µg/mL in the assay with Meloidogyne javanica [2] was found to be 66.9%; in the assay with Meloidogyne javanica [3], 88.2%.

Consider `CC(C)/C=C/N=C=S` [ISOAMYLENE ISOTHIOCYANATE], for which the mortality at 5 µg/mL is 27.4% in the assay with Meloidogyne javanica [2] and 56.9% with Meloidogyne javanica [3].

With `CC(C)N=C=S` [ISOPROPYL ISOTHIOCYANATE], the mortality at 5 µg/mL with Meloidogyne javanica [2] came to 22.6%; in the assay on Meloidogyne javanica [3], 42.9%.

Consider `CC(C)CC(=O)N=C=S` [ISOVALERYL ISOTHIOCYANATE], for which the mortality at 5 µg/mL was 26.4% in the assay on Meloidogyne javanica [2] and 58.5% in the assay with Meloidogyne javanica [3].

For `CNC(=S)[S-].[Na+]` [METAM SODIUM], the inhibition entry with Meloidogyne javanica [10] was “Active”. Also, in the assay on Meloidogyne javanica [1], the LC90 turned out to be 3.65 µg/mL and the LC50 was found to be 2.12 µg/mL. In the assay with Meloidogyne javanica [2], the mortality at 5 µg/mL came to 72.2%. In addition, the mortality at 5 µg/mL in the assay on Meloidogyne javanica [3] amounted to 93.4%.

For the molecule `S=C=NCCc1ccccc1` [PHENETHYLISOTHIOCYANATE], in the assay with Meloidogyne javanica [1], the LC90 is 6.96 µg/mL (≈ 42.6 µM) and the median lethal concentration (LC50) worked out at 4.15 µg/mL (≈ 25.4 µM). For the same molecule, the mortality at 5 µg/mL in the assay on Meloidogyne javanica [2] stood at 60.8%. Moreover, in the assay on Meloidogyne javanica [3], the mortality at 5 µg/mL worked out at 79.6%.

`S=C=Nc1ccccc1` [PHENYLISOTHIOCYANATE]: the values for the mortality at 5 µg/mL in the assay with Meloidogyne javanica [2] and with Meloidogyne javanica [3] were 25.6% and 58.2%, respectively.

With `CCCN=C=S` [PROPYL ISOTHIOCYANATE], the mortality at 5 µg/mL in the assay with Meloidogyne javanica [2] was determined as 21.5%; with Meloidogyne javanica [3] it was 40.2%.
